{"source": "paper PMC11062899", "about": "“De novo development of small cyclic peptides that are orally bioavailable” (Nature Chemical Biology, 2023)", "key": {"[1]": {"test": "Passive artificial membrane permeability (PAMPA);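 as to Permeability% Average: top well sample relative to theoretical equilibrium sample by TIC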"}, "[2]": {"biological_target": "human α-thrombin (Homo sapiens, UniProt P00734)", "test": "Protease inhibition, Ki for human α-thrombin (fluorogenic substrate Z-Gly-Gly-Arg-AMC)", "format": "biochemical", "conditions": "for Human alpha thrombin inhibition, slope normalized to DMSO: replicates R1-R3", "summary_of_the_method": "(§1)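 Inhibition was measured as AMC fluorescence from 50 μM substrate, monitored for 30 min at 25 °C, relative to a peptide-free control. Human and rat enzymes were present at 2 nM and 3 nM final, respectively, in 50 mM Tris-HCl pH 7.4, 150 mM NaCl, 10 mM MgCl2, 1 mM CaCl2. Ki derives from fitted IC50 via Cheng–Prusoff.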"}, "[3]": {"biological_target": "T1, rat α-thrombin (Rattus norvegicus, UniProt P18292)", "T1 construct": "rat α-thrombin (Molecular Innovations) were used at final concentrations of 2 nM and 3 nM; purchased Molecular Innovations", "test": "Protease inhibition, Ki for rat α-thrombin (fluorogenic substrate Z-Gly-Gly-Arg-AMC)", "format": "biochemical", "conditions": "for Rat alpha thrombin inhibition, slope normalized to DMSO: replicates R1-R3", "summary_of_the_method": "as §1"}, "[4]": {"conditions": "peptide concentration 1.00E+02 uM"}, "[5]": {"conditions": "peptide concentration 1.19E-05 uM"}, "[6]": {"conditions": "peptide concentration 1.22E-02 uM"}, "[7]": {"conditions": "peptide concentration 1.25E+01 uM"}, "[8]": {"conditions": "peptide concentration 1.53E-03 uM"}, "[9]": {"conditions": "peptide concentration 1.56E+00 uM"}, "[10]": {"conditions": "peptide concentration 1.91E-04 uM"}, "[11]": {"conditions": "peptide concentration 1.95E-01 uM"}, "[12]": {"conditions": "peptide concentration 2.38E-05 uM"}, "[13]": {"conditions": "peptide concentration 2.44E-02 uM"}, "[14]": {"conditions": "peptide concentration 2.50E+01 uM"}, "[15]": {"conditions": "peptide concentration 3.05E-03 uM"}, "[16]": {"conditions": "peptide concentration 3.12E+00 uM"}, "[17]": {"conditions": "peptide concentration 3.81E-04 uM"}, "[18]": {"conditions": "peptide concentration 3.91E-01 uM"}, "[19]": {"conditions": "peptide concentration 4.77E-05 uM"}, "[20]": {"conditions": "peptide concentration 4.88E-02 uM"}, "[21]": {"conditions": "peptide concentration 5.00E+01 uM"}, "[22]": {"conditions": "peptide concentration 6.10E-03 uM"}, "[23]": {"conditions": "peptide concentration 6.25E+00 uM"}, "[24]": {"conditions": "peptide concentration 7.63E-04 uM"}, "[25]": {"conditions": "peptide concentration 7.81E-01 uM"}, "[26]": {"conditions": "peptide concentration 9.54E-05 uM"}, "[27]": {"conditions": "peptide concentration 9.77E-02 uM"}}, "note": "“And” between values parts separate entries of the source, which are not always exact repeats. Equal values may be shown once. Read-outs that look alike come from different tables or passages of the source.", "data": [{"molecule": "O=C1C[C@H]2CCCN2C(=O)[C@H](Cc2ccccc2)NC(=O)[C@@H](NC(=O)c2ccc(Cl)s2)CCCC=CCCCN1", "note": "[compound 42]", "values": [{"measurement": "PAMPA permeability: % permeability", "setting": "[1]; 50 μM, 12–18 h, acceptor concentration relative to equilibrium", "result": "70 ± 22", "unit": "%"}, {"measurement": "Permeability% (single replicates R1–R3)", "setting": "[1]; 50 μM, 13 h (Fig. 5d)", "result": "83.98% and 44.59% and 81.97%"}, {"measurement": "Permeability% Average", "setting": "[1]; 50 μM, 13 h (Fig. 5d)", "result": 70.2, "unit": "%"}, {"measurement": "Papp at 50 μM", "setting": "[1]; PAMPA, pH 7.4", "result": 11.2, "unit": "×10⁻⁶ cm/s"}, {"measurement": "Ki", "setting": "[2]; average of R1-R3, read-out: Human alpha thrombin inhibition, Ki Average", "result": 321, "unit": "nM"}, {"measurement": "Human alpha thrombin inhibition, slope normalized to DMSO", "setting": "[2]; [4]", "result": "8.6 and 8.9 and 9.5"}, {"measurement": "Human alpha thrombin inhibition, slope normalized to DMSO", "setting": "[2]; [5]", "result": "104.7 and 99.7 and 99.1"}, {"measurement": "Human alpha thrombin inhibition, slope normalized to DMSO", "setting": "[2]; [6]", "result": "46.3 and 101.7 and 85.0"}, {"measurement": "Human alpha thrombin inhibition, slope normalized to DMSO", "setting": "[2]; [7]", "result": "5.3 and 13.8 and 11.9"}, {"measurement": "Human alpha thrombin inhibition, slope normalized to DMSO", "setting": "[2]; [8]", "result": "49.9 and 105.6 and 101.7"}, {"measurement": "Human alpha thrombin inhibition, slope normalized to DMSO", "setting": "[2]; [9]", "result": "36.6 and 35.2 and 35.3"}, {"measurement": "Human alpha thrombin inhibition, slope normalized to DMSO", "setting": "[2]; [10]", "result": "98.2 and 106.9 and 104.5"}, {"measurement": "Human alpha thrombin inhibition, slope normalized to DMSO", "setting": "[2]; [11]", "result": "49.0 and 78.5 and 77.7"}, {"measurement": "Human alpha thrombin inhibition, slope normalized to DMSO", "setting": "[2]; [12]", "result": "110.3 and 103.8 and 102.6"}, {"measurement": "Human alpha thrombin inhibition, slope normalized to DMSO", "setting": "[2]; [13]", "result": "87.9 and 84.7 and 102.8"}, {"measurement": "Human alpha thrombin inhibition, slope normalized to DMSO", "setting": "[2]; [14]", "result": "10.1 and 9.5 and 12.3"}, {"measurement": "Human alpha thrombin inhibition, slope normalized to DMSO", "setting": "[2]; [15]", "result": "53.7 and 99.4 and 62.7"}, {"measurement": "Human alpha thrombin inhibition, slope normalized to DMSO", "setting": "[2]; [16]", "result": "11.6 and 29.8 and 12.4"}, {"measurement": "Human alpha thrombin inhibition, slope normalized to DMSO", "setting": "[2]; [17]", "result": "68.4 and 103.9 and 101.2"}, {"measurement": "Human alpha thrombin inhibition, slope normalized to DMSO", "setting": "[2]; [18]", "result": "64.4 and 65.7 and 57.7"}, {"measurement": "Human alpha thrombin inhibition, slope normalized to DMSO", "setting": "[2]; [19]", "result": "106.6 and 102.8 and 103.1"}, {"measurement": "Human alpha thrombin inhibition, slope normalized to DMSO", "setting": "[2]; [20]", "result": "55.2 and 93.5 and 76.8"}, {"measurement": "Human alpha thrombin inhibition, slope normalized to DMSO", "setting": "[2]; [21]", "result": "11.6 (2×) and 7.0"}, {"measurement": "Human alpha thrombin inhibition, slope normalized to DMSO", "setting": "[2]; [22]", "result": "92.4 and 103.3 and 95.4"}, {"measurement": "Human alpha thrombin inhibition, slope normalized to DMSO", "setting": "[2]; [23]", "result": "8.5 and 19.8 and 17.9"}, {"measurement": "Human alpha thrombin inhibition, slope normalized to DMSO", "setting": "[2]; [24]", "result": "104.5 and 110.5 and 71.2"}, {"measurement": "Human alpha thrombin inhibition, slope normalized to DMSO", "setting": "[2]; [25]", "result": "53.0 and 40.3 and 48.0"}, {"measurement": "Human alpha thrombin inhibition, slope normalized to DMSO", "setting": "[2]; [26]", "result": "104.5 and 106.6 and 99.3"}, {"measurement": "Human alpha thrombin inhibition, slope normalized to DMSO", "setting": "[2]; [27]", "result": "84.9 and 80.9 and 75.3"}, {"measurement": "IC50", "setting": "[2]; single replicates R1-R3, read-out: Human alpha thrombin inhibition, IC50", "result": "141 nM and 513 nM and 595 nM"}, {"measurement": "Ki", "setting": "[2]; single replicates R1-R3, read-out: Human alpha thrombin inhibition, Ki", "result": "108 nM (2×) and 396 nM (2×) and 459 nM (2×)"}, {"measurement": "Ki", "setting": "[3]; average of R1-R3, read-out: Rat alpha thrombin inhibition, Ki Average", "result": 104, "unit": "nM"}, {"measurement": "Rat alpha thrombin inhibition, slope normalized to DMSO", "setting": "[3]; [4]", "result": "11.1 and 8.8 and 6.3"}, {"measurement": "Rat alpha thrombin inhibition, slope normalized to DMSO", "setting": "[3]; [5]", "result": "97.9 and 89.1 and 104.7"}, {"measurement": "Rat alpha thrombin inhibition, slope normalized to DMSO", "setting": "[3]; [6]", "result": "95.5 and 96.6 and 90.7"}, {"measurement": "Rat alpha thrombin inhibition, slope normalized to DMSO", "setting": "[3]; [7]", "result": "7.6 and 6.9 and 7.3"}, {"measurement": "Rat alpha thrombin inhibition, slope normalized to DMSO", "setting": "[3]; [8]", "result": "101.7 and 97.0 and 102.3"}, {"measurement": "Rat alpha thrombin inhibition, slope normalized to DMSO", "setting": "[3]; [9]", "result": "15.7 and 15.6 and 13.6"}, {"measurement": "Rat alpha thrombin inhibition, slope normalized to DMSO", "setting": "[3]; [10]", "result": "90.1 and 101.9 and 101.4"}, {"measurement": "Rat alpha thrombin inhibition, slope normalized to DMSO", "setting": "[3]; [11]", "result": "54.3 and 44.0 and 44.2"}, {"measurement": "Rat alpha thrombin inhibition, slope normalized to DMSO", "setting": "[3]; [12]", "result": "98.8 and 105.1 and 93.8"}, {"measurement": "Rat alpha thrombin inhibition, slope normalized to DMSO", "setting": "[3]; [13]", "result": "96.7 and 81.8 and 91.8"}, {"measurement": "Rat alpha thrombin inhibition, slope normalized to DMSO", "setting": "[3]; [14]", "result": "6.5 and 0.4 and 5.6"}, {"measurement": "Rat alpha thrombin inhibition, slope normalized to DMSO", "setting": "[3]; [15]", "result": "104.2 and 96.1 and 93.1"}, {"measurement": "Rat alpha thrombin inhibition, slope normalized to DMSO", "setting": "[3]; [16]", "result": "7.9 and 9.5 and 5.7"}, {"measurement": "Rat alpha thrombin inhibition, slope normalized to DMSO", "setting": "[3]; [17]", "result": "106.7 and 100.9 and 91.0"}, {"measurement": "Rat alpha thrombin inhibition, slope normalized to DMSO", "setting": "[3]; [18]", "result": "38.3 and 34.0 and 35.5"}, {"measurement": "Rat alpha thrombin inhibition, slope normalized to DMSO", "setting": "[3]; [19]", "result": "98.1 and 100.4 and 100.7"}, {"measurement": "Rat alpha thrombin inhibition, slope normalized to DMSO", "setting": "[3]; [20]", "result": "84.8 and 84.4 and 72.7"}, {"measurement": "Rat alpha thrombin inhibition, slope normalized to DMSO", "setting": "[3]; [21]", "result": "0.8 and 7.3 and 2.5"}, {"measurement": "Rat alpha thrombin inhibition, slope normalized to DMSO", "setting": "[3]; [22]", "result": "104.0 and 93.5 and 94.8"}, {"measurement": "Rat alpha thrombin inhibition, slope normalized to DMSO", "setting": "[3]; [23]", "result": "7.5 and 8.8 and 7.9"}, {"measurement": "Rat alpha thrombin inhibition, slope normalized to DMSO", "setting": "[3]; [24]", "result": "97.9 and 91.4 and 101.5"}, {"measurement": "Rat alpha thrombin inhibition, slope normalized to DMSO", "setting": "[3]; [25]", "result": "26.2 and 23.7 and 23.1"}, {"measurement": "Rat alpha thrombin inhibition, slope normalized to DMSO", "setting": "[3]; [26]", "result": "96.9 and 98.1 and 96.1"}, {"measurement": "Rat alpha thrombin inhibition, slope normalized to DMSO", "setting": "[3]; [27]", "result": "69.5 and 66.8"}, {"measurement": "IC50", "setting": "[3]; single replicates R1-R3, read-out: Rat alpha thrombin inhibition, IC50", "result": "215 nM and 179 nM and 168 nM"}, {"measurement": "Ki", "setting": "[3]; single replicates R1-R3, read-out: Rat alpha thrombin inhibition, Ki", "result": "119 nM (2×) and 98.9 nM (2×) and 92.9 nM (2×)"}]}]}
